Earlier results on one substance are cited in paper PMC11235333, “Glucagon-like peptide-1 stimulates acute secretion of pro-atrial natriuretic peptide from the isolated, perfused pig lung exposed to warm ischemia” (Frontiers in Transplantation, 2022).

This series relates to lipopolyssacharide induced endotoxemia in rats. As to conditions: lipopolysaccharide induced endotoxemia, after 3 h, ref Yanay et al. On the procedure: In studies with 24 h EVLP and transplantation of donor lungs, a rise of IL-8 concentration, proportional to the duration of warm ischaemia, was observed ([78], [79]). In the majority of studies investigating the anti-inflammatory effects of GPL-1 in the lungs, treatment was given more than 6 ...

For exendin-4, the Inflammatory cytokines result was “decreased IL-1α, IL-1β, IL-6, TNFα and IFNγ but not IL-10”.
